Experimental data: patent publication US20220386611A1, “NOVEL HETEROARYL-TRIAZOLE COMPOUNDS AS PESTICIDES” (Bayer Aktiengesellschaft, priority 2019, published 2022)

How the values were obtained:
Format in all cases: in vivo
[1] = system: cattle ticks (Rhipicephalus microplus) strain Parkhurst, SP-resistant; test: Rhipicephalus (Boophilus) microplus dip test; conditions: 100 ppm, after 7 days
Experimental: Rhipicephalus (Boophilus) microplus—Dip Test
Test animal: cattle ticks (Rhipicephalus microplus) strain Parkhurst, SP-resistant
Solvent: dimethyl sulfoxide
To produce a suitable preparation of active compound, 10 mg of active compound are dissolved in 0.5 mL solvent, and the concentrate is diluted with water to the desired concentration.
This compound solution is pipetted into tubes. 8-10 engorged, adult, female cattle ticks (Rhipicephalus microplus) are placed in perforated tubes. These tubes are immersed in the aqueous compound solution until the ticks are completely moistened. After the liquid has drained off, the ticks are transferred to a filter paper in a plastic tray and stored in a climate chamber.
After 7 days egg deposition of fertile eggs is monitored. Eggs where fertility is not visible are stored in a climate chamber till hatching after about 42 days. An efficacy of 100% means all eggs are infertile; 0% means all eggs are fertile.

[2] = system: Blattella germanica strain PAULINIA; test: Blattella germanica test (BLTTGE surface treatment & contact assay); conditions: surface concentration 20 mg/m^2, 30 minutes exposure, 24 hours after contact, read-out: efficacy (mortality)
Experimental: Blattella germanica Test (BLTTGE Surface Treatment & Contact Assay)
Solvent: Aceton+2000 ppm rapeseed oil methyl ester (RME)
In order to produce a sufficient, active ingredient containing solution it is necessary to solve the test compound in the solvent-mix (acetone at 2 mg/ml/RME 2000 ppm). This solution is pipetted onto a glazed tile and after evaporation of the acetone, adult animals of the species Blattella germanica strain PAULINIA are placed onto the dried surface. The exposure time is 30 minutes. Mortality in percent (%) is determined 24 hours after contact of the insects to the treated surface. 100% mortality means that all tested insects are dead, whereas 0% means that no insect died.

[3] = system: Rhipicephalus microplus larvae (strain Parkhurst, resistant against synthetic pyrethroids); test: Rhipicephalus (Boophilus) microplus in-vitro contact test, larval cattle tick; conditions: 5 μg/cm^2 (=500 g/ha), after 48 hours, read-out: efficacy (larvae dead or moribund)
In short: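 Compound in acetone coated on glass tube inner walls; 900 ppm gives 5 μg/cm^2. Pyrethroid-resistant Parkhurst larvae (20-50 per tube) held at 27 °C, 85% relative humidity. Efficacy scored after 48 h from loss of negative geotaxis; 100% means all larvae dead or moribund.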

[4] = system: adult engorged female ticks (Rhipicephalus microplus); test: Rhipicephalus (Boophilus) microplus injection test; conditions: 168 h, after 7 days, read-out: efficacy (infertile eggs); for pest or weed control at 0.004 mg: 4 μg/animal
In short: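 Efficacy is scored from egg fertility, with 100% meaning every egg infertile and 0% every egg fertile. Five engorged females per test received 1 μL DMSO solution abdominally. Eggs of unclear fertility were kept until hatching, about 42 days.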

[5] = system: green peach aphid (Myzus persicae); test: Myzus persicae oral test; conditions: 120 h
In short: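 Compound in acetone was diluted with water, and 50 μL was mixed with 150 μL IPL41 insect medium (33% + 15% sugar). A mixed aphid population fed on this through a parafilm seal. Mortality % was scored after 5 days, where 100% means all aphids were killed.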

[6] = system: green peach aphid (Myzus persicae); test: Myzus persicae spray test; conditions: foliar, 120 h, after 5 days, Chinese cabbage leaf disks
In short: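 Chinese cabbage leaf disks infested with all instars of Myzus persicae were sprayed with compound formulated in acetone/dimethylformamide and diluted in water containing 1000 ppm emulsifier. Percent mortality was scored after 5 days.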

| SMILES | efficacy (infertile eggs) [1] [%] | mortality at 20 mg/m2 [2] [%] | pest or weed control at 5 µg/cm2 [3] [%] | pest or weed control at 0.004 mg [4] [%] | pest or weed control at 0.02 mg ([4]; 20 μg/animal) [%] | mortality at 4 ppm [5] [%] | mortality at 100 g/ha [6] [%] |
| --- | --- | --- | --- | --- | --- | --- | --- |
| CC(NC(=O)c1cc(C(F)(F)F)cc(C(F)(F)F)c1)c1nc(Cl)nn1-c1ncccn1 (centres unmarked) [Example I-002] | 80 | 80 to 100 | 100 | 100 | 100 | 100 |  |
| CC(NC(=O)c1cc(C(F)(F)F)cc(C(F)(F)F)c1)c1nc(Br)nn1-c1ncccn1 (centres unmarked) [Example I-010] |  |  | 100 | 100 |  | 100 | 90 |
| CC(NC(=O)c1cc(C(F)(F)F)cc(C(F)(F)F)c1)c1nc(I)nn1-c1ncccn1 (centres unmarked) [Example I-021] |  | 80 to 100 | 100 |  |  | 100 | 90 |
